Where two headings read alike, the source gives them in different places.

The text below walks through data of PMC7412453, “SAR:s for the Antiparasitic Plant Metabolite Pulchrol. 1. The Benzyl Alcohol Functionality” (Molecules, 2020).

Data set [1] concerns Raw 264.7 murine macrophage cell line. Description: Cytotoxicity in RAW cells (Resazurin). The following applies: RAW cells, 72 h at 37 °C, Resazurin, triplicate. Type of data set: cell-based. The procedure: (§1) Evaluations against RAW cells: The Raw 264.7 murine macrophage cell line was purchased from the American Type Culture Collection (ATCC-TIB71). The cells were maintained in DMEM-HG medium supplemented with 10% fetal bovine serum, 100 U/mL of penicillin and 100 μg/mL of streptomycin, and sodium bicarbonate (2.2 g/L) in humidified atmosphere at 37 °C with 5% CO2. Samples were prepared as described above and added (in 100 μL DMSO) at different concentrations (6.2–200 μg/mL). Medium blank, control drugs and cell growth controls were included to evaluate cell viability. The plates were incubated for 72 h at 37 °C with 5% CO2. After incubation for the indicated time, the cells were washed, after which 10 μL of Resazurin reagent (2.0 mM) was added. They were further incubated at 37 °C for 3 h in a humidified incubator. The IC50 values were assessed using a fluorometric reader (540 nm excitation, 590 nm emission) and the Gen5 software. All assays were performed in triplicate.
For orientation: Resazurin is reduced to fluorescent resorufin, in cell work by metabolically active cells.

For data set [2], the system named is L. brasiliensis promastigotes. Description: Leishmanicidal activity against L. brasiliensis promastigotes (XTT). Conditions: for IC50: read-out: L. brasiliensis IC50. Here is the method: (§2) Evaluations against Leishmania parasites: Promastigotes of Leishmania-Leishmania: L. amazonensis, Clone 1, NHOM-BR-76-LTB-012 (Lma, donated by the Paul Sabatier Université, France) and Leishmania-Viannia: L. braziliensis M2904 C192 RJA (M2904, donated by Dr. Jorge Arévalo from Universidad Peruana Cayetano Heredia, Peru). All strains were cultured in Schneider’s insect medium, (pH 6.2) supplemented with 10% FBS and incubated at 26 °C. Medium changes were made every 72 h to maintain a viable parasitic population. Leishmanicidal activity was determined according to Williams with some modifications. Samples were dissolved in DMSO (maximum final concentration 1%) at 10 mg/mL. Promastigotes in logarithmic phase of growth, at the concentration 3 × 10^6 parasites/mL, were distributed (100 μL/well) in 96-well flat bottom microtiter plates. Samples with different concentrations (3.1–100 μg/mL) were added (100 μL). […] Assays were performed in triplicates. The microwell plates were incubated for 72 h at 26 °C. After incubation, a solution of XTT (1 mg/mL) in PBS (pH 7.0 at 37 °C) with PMS (0.06 mg/mL) was added (50 μL/well), and incubated for 3 h at 26 °C. The optical density of each well was measured and the IC50 values calculated.
(Formazan colour is commonly taken as a measure of viable cells.)

Another data set has as its system T. cruzi epimastigotes. Nature of the data set: Trypanocidal activity against T. cruzi epimastigotes (XTT). The class given is cell-based, Trypanosoma cruzi. Conditions: for IC50: read-out: T. cruzi IC50; for selectivity ratio at 72 h: mouse (RAW 264.7 cells) / Trypanosoma cruzi (epimastigotes), read-out: T. cruzi SI (selectivity index, cytotoxicity/anti-protozoal activity). The procedure:
Trypanocidal activity was determined according to Muelas-Serrano with some modifications. […] Benznidazol (3.1–100 μg/mL) was used as the control drug. Assays were performed in triplicates.

Data set [3] deals with L. amazoniensis promastigotes. Description: Leishmanicidal activity against L. amazoniensis promastigotes (XTT). The following applies: for IC50: read-out: L. amazoniensis IC50. The procedure: as §2, with “All” for “Evaluations against Leishmania parasites: Promastigotes of Leishmania-Leishmania: L. amazonensis, Clone 1, NHOM-BR-76-LTB-012 (Lma, donated by the Paul Sabatier Université, France) and Leishmania-Viannia: L. braziliensis M2904 C192 RJA (M2904, donated by Dr. Jorge Arévalo from Universidad Peruana Cayetano Heredia, Peru). All”

A short description of data set [4]: Cytotoxicity in RAW cells (Resazurin). The class given is cell-based, murine. Conditions: mouse. Here is the method:
as §1

For data set [5], the system named is promastigotes of L. mexicana. More on the design: method as in doi:10.1016/j.phytol.2009.10.002. The following applies: not part of this investigation; cited from earlier work.
The mark [6] stands for this setting: promastigotes, 72 h at 26 °C, XTT, triplicates.
Where [7] appears, read: Trypanosoma cruzi, epimastigotes, 72 h at 26 °C, XTT, triplicates.
The mark [8] stands for this setting: L. brasiliensis SI (selectivity index, cytotoxicity/anti-protozoal activity), RAW cell IC50 / L. brasiliensis IC50.
Where [9] appears, read: L. amazoniensis SI (selectivity index, cytotoxicity/anti-protozoal activity), RAW cell IC50 / L. amazoniensis IC50.

Usually IC50 stands for the concentration at which inhibition is half-maximal. In the case of “2-Methoxy-6,6-dimethyl-9-(((4-methoxypentyl)oxy)methyl)-6H-benzo[c]chromene [3e]”, the IC50 in data set [1] stood at 31.6 ± 5.6 µM; in data set [2] (setting [6]), 127 ± 11.3 µM; with T. cruzi epimastigotes (epimastigotes, 72 h at 26 °C, XTT, triplicates) it was 9 ± 0.6 µM; in data set [3] (setting [6]) it was 28.2 ± 8.5 µM. Moreover, in data set [2] (RAW cell IC50 / L. brasiliensis IC50), the “L. brasiliensis SI (selectivity index, cytotoxicity/anti-protozoal activity)” value worked out at 0.3. The “T. cruzi SI (selectivity index, cytotoxicity/anti-protozoal activity)” value with T. cruzi epimastigotes (RAW cell IC50 / T. cruzi IC50) is 3.5. In addition, the “L. amazoniensis SI (selectivity index, cytotoxicity/anti-protozoal activity)” value in data set [3] (RAW cell IC50 / L. amazoniensis IC50) was found to be 1.1.
As for `COc1ccc2c(c1)-c1cc(COC(=O)CCC3CCCC3)ccc1C(C)(C)O2` [4h, (2-Methoxy-6,6-dimethyl-6H-benzo[c]chromen-9-yl)methyl 3-cyclopentylpropanoate], in data set [4], 50.7 ± 17.7 µM corresponded to half-maximal inhibition (IC50 at 72 h). Besides, the selectivity ratio at 72 h in data set [2] came out at 0.4; in the data set on T. cruzi epimastigotes (RAW cell IC50 / T. cruzi IC50), 6.1; in data set [3] it was 1.6. The IC50 in data set [2] (72 h) was 122 ± 27.9 µM; in the data set on T. cruzi epimastigotes (setting [7]) it was 8.4 ± 3.3 µM; in data set [3] (Leishmania amazonensis, 72 h), 30.9 ± 3 µM.
Regarding `COc1ccc2c(c1)-c1cc(COC(=O)C3CCCCC3)ccc1C(C)(C)O2` [4i, (2-Methoxy-6,6-dimethyl-6H-benzo[c]chromen-9-yl)methyl cyclohexanecarboxylate], in data set [4], 51.3 ± 8.2 µM corresponded to half-maximal inhibition (IC50 at 72 h). For the same compound, the selectivity ratio at 72 h in data set [2] stood at 2.1; in the data set on T. cruzi epimastigotes (RAW cell IC50 / T. cruzi IC50), 3.9; in data set [3], 1.3. The IC50 amounted to 24.3 ± 0.8 µM in data set [2] (72 h); 13.1 ± 0.5 µM in the data set on T. cruzi epimastigotes (setting [7]); 40.5 ± 8.7 µM in data set [3] (Leishmania amazonensis, 72 h).
Take `C=CC(=O)OCc1ccc2c(c1)-c1cc(OC)ccc1OC2(C)C` [4j, (2-Methoxy-6,6-dimethyl-6H-benzo[c]chromen-9-yl)methyl acrylate]: the IC50 at 72 h in data set [4] is 40.1 ± 12.6 µM. For the same compound, the IC50 in data set [2] (72 h) is 5.7 ± 0.5 µM; with T. cruzi epimastigotes (setting [7]) it was 7.4 ± 0.9 µM; in data set [3] (Leishmania amazonensis, 72 h) it was 6.9 ± 1.7 µM. Further, the selectivity ratio at 72 h (in data set [2] (setting [8]); in the data set on T. cruzi epimastigotes (RAW cell IC50 / T. cruzi IC50); in data set [3] (setting [9])) was above 5 throughout.
On to `COc1ccc2c(c1)-c1cc(COC(=O)c3ccco3)ccc1C(C)(C)O2` [4k, (2-Methoxy-6,6-dimethyl-6H-benzo[c]chromen-9-yl)methyl furan-2-carboxylate], for which the IC50 at 72 h in data set [4] stood at 30.5 ± 3.6 µM. Further, the IC50 in data set [2] (72 h) was determined as 12.8 ± 0.1 µM; in the data set with T. cruzi epimastigotes (setting [7]), 3.8 ± 0.3 µM; in data set [3] (Leishmania amazonensis, 72 h) it was 12.8 ± 1.8 µM. For the same compound, the results for the selectivity ratio at 72 h (in data set [2] (setting [8]); in the data set on T. cruzi epimastigotes (RAW cell IC50 / T. cruzi IC50); in data set [3] (setting [9])) were 2.4, 7.9 and 2.4, respectively.
For the compound `COc1ccc2c(c1)-c1cc(COC(=O)c3ccccc3)ccc1C(C)(C)O2` [4l, (2-Methoxy-6,6-dimethyl-6H-benzo[c]chromen-9-yl)methyl benzoate], in data set [4], it took 27.8 ± 10.7 µM to reach half-maximal inhibition (IC50 at 72 h). Also, the IC50 in data set [2] (72 h) was 21 ± 4.3 µM; with T. cruzi epimastigotes (setting [7]), 5.9 ± 0.5 µM; in data set [3] (Leishmania amazonensis, 72 h) it was 21.9 ± 7.7 µM. Further, the selectivity ratio at 72 h in data set [2] (setting [8]) was determined as 1.3; with T. cruzi epimastigotes (RAW cell IC50 / T. cruzi IC50), 4.7; in data set [3] (setting [9]), 1.3.
Consider `COc1ccc2c(c1)-c1cc(C=O)ccc1C(C)(C)O2` [5a, 2-Methoxy-6,6-dimethyl-6H-benzo[c]chromene-9-carbaldehyde], for which, in data set [4], the IC50 at 72 h was found to be 38.8 ± 3.7 µM. The IC50 in data set [2] (72 h) was found to be 24.2 ± 7.5 µM; in the data set with T. cruzi epimastigotes (setting [7]), 24.2 ± 4.1 µM; in data set [3] (Leishmania amazonensis, 72 h) it was 29.8 ± 11.2 µM. In addition, the selectivity ratio at 72 h in data set [2] (setting [8]) came to 1.6; with T. cruzi epimastigotes (RAW cell IC50 / T. cruzi IC50), 1.6; in data set [3] (setting [9]), 1.3.
Take `COc1ccc2c(c1)-c1cc(C(C)=O)ccc1C(C)(C)O2` [5b, 1-(2-Methoxy-6,6-dimethyl-6H-benzo[c]chromen-9-yl)ethan-1-one]: the IC50 at 72 h in data set [4] stood at 31.9 ± 7.1 µM. For the same compound, the IC50 in data set [2] (72 h) came to 28.3 ± 7.1 µM; with T. cruzi epimastigotes (setting [7]), 21.2 ± 9.2 µM; in data set [3] (Leishmania amazonensis, 72 h), 43.2 ± 8.2 µM. The selectivity ratio at 72 h turned out to be 1.1 in data set [2] (setting [8]), 1.5 in the data set with T. cruzi epimastigotes (RAW cell IC50 / T. cruzi IC50) and 0.7 in data set [3] (setting [9]).
As to `COc1ccc2c(c1)-c1cc(C(=O)O)ccc1C(C)(C)O2` [5c, 2-Methoxy-6,6-dimethyl-6H-benzo[c]chromene-9-carboxylic acid], in data set [4], 246 ± 24.6 µM corresponded to half-maximal inhibition (IC50 at 72 h). For the same compound, the IC50 in data set [2] (72 h) amounted to 65.1 ± 16.5 µM; with T. cruzi epimastigotes (setting [7]), 56.3 µM; in data set [3] (Leishmania amazonensis, 72 h), 199 µM. For the same compound, the selectivity ratio at 72 h in data set [2] (setting [8]) came to 3.8; in the data set on T. cruzi epimastigotes (RAW cell IC50 / T. cruzi IC50), 4.4; in data set [3] (setting [9]), 1.2.
The compound `COC(=O)c1ccc2c(c1)-c1cc(OC)ccc1OC2(C)C` [5d, Methyl 2-Methoxy-6,6-dimethyl-6H-benzo[c]chromene-9-carboxylate] had an IC50 at 72 h in data set [4] of 38.2 ± 2.7 µM. In addition, the IC50 in data set [2] (72 h) stood at 18.4 ± 5.7 µM; in the data set with T. cruzi epimastigotes (setting [7]), 31.8 ± 2.4 µM; in data set [3] (Leishmania amazonensis, 72 h), 59 ± 1.3 µM. In addition, the values for the selectivity ratio at 72 h (in data set [2] (setting [8]); in the data set with T. cruzi epimastigotes (RAW cell IC50 / T. cruzi IC50); in data set [3] (setting [9])) were 2.1, 1.2 and 0.7, respectively.
Consider `COc1ccc2c(c1)-c1cc(C(N)=O)ccc1C(C)(C)O2` [5e, 2-Methoxy-6,6-dimethyl-6H-benzo[c]chromene-9-carboxamide], for which, in data set [4], the IC50 at 72 h turned out to be 49.8 ± 17.7 µM. Moreover, the IC50 in data set [2] (72 h) is 145 ± 43.1 µM; with T. cruzi epimastigotes (setting [7]), 134 ± 38.8 µM; in data set [3] (Leishmania amazonensis, 72 h), 121 ± 21.2 µM. Besides, the results for the selectivity ratio at 72 h (in data set [2] (setting [8]); in the data set with T. cruzi epimastigotes (RAW cell IC50 / T. cruzi IC50); in data set [3] (setting [9])) were 0.3, 0.4 and 0.4, respectively.
For the compound `COc1ccc2c(c1)-c1cc(CO)ccc1C(C)(C)O2` [compound 1, (2-methoxy-6,6-dimethyl-6H-benzo[c]chromen-9-yl)methanol], the IC50 at 72 h in data set [4] (RAW cells, 72 h at 37 °C, Resazurin, triplicate, read-out: Cytotoxicity IC50) is 30.7 ± 1.1 µM. For the same compound, the selectivity ratio at 72 h in data set [2] came to 0.5; with T. cruzi epimastigotes (RAW cell IC50 / T. cruzi IC50), 1.7; in data set [3] it was 0.4. In addition, the IC50 in data set [2] (72 h) is 59.2 ± 11.8 µM; with T. cruzi epimastigotes (Trypanosoma cruzi, 72 h), 18.5 ± 9.6 µM; in data set [3] (Leishmania amazonensis, 72 h), 77.7 ± 5.6 µM; in data set [5], 17 µM.
With `COc1ccc2c(c1)-c1cc(C(=N)NO)ccc1C(C)(C)O2` [compound 6, N-hydroxy-2-methoxy-6,6-dimethyl-6H-benzo[c]chromene-9-carboximidamide], it took 26.4 ± 1.5 µM to reach half-maximal inhibition in data set [4] (IC50 at 72 h). Moreover, the IC50 stood at 52 ± 18.6 µM in data set [2] (72 h); 33.4 ± 14.9 µM in the data set on T. cruzi epimastigotes (setting [7]); 52 ± 16.7 µM in data set [3] (Leishmania amazonensis, 72 h). Also, the selectivity ratio at 72 h was 0.5 in data set [2] (setting [8]), 0.8 in the data set with T. cruzi epimastigotes (RAW cell IC50 / T. cruzi IC50) and 0.5 in data set [3] (setting [9]).
